2 molecules from paper PMC3681555, “PPARγ as a sensor of lipase activity and a target for the lipase inhibitor orlistat” (Lipids in Health and Disease, 2013) can be followed below.

The target in assay [1] is T1, PPARγ (Homo sapiens, UniProt P37231).
T1 construct: gene PPARG
T1 sequence (P37231 235-505 limits assumed): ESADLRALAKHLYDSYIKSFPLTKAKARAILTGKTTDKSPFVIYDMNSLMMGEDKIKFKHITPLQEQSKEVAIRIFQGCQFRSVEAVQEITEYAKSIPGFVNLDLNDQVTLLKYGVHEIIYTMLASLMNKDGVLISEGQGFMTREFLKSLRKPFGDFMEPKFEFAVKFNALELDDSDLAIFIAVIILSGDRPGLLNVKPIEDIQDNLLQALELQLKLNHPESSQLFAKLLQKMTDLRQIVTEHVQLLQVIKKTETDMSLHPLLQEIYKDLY
Kind of assay: intact-protein LC-ESI-MS, covalent control (data not shown). It is filed as binding.

For assay [2], the target named is T1, PPARγ. Nature of the assay: competitive fluorescence polarization (PolarScreen PPARγ green kit); LC-MS shows no covalent adduct. It is filed as binding. A general note: In fluorescence polarisation assays a small probe gives low polarisation when free and higher when bound to something large.

pIC50: −log10 of the molar value.

On to `O=C(Nc1ccccc1)c1cc([N+](=O)[O-])ccc1Cl` [GW9662], for which, at PPARγ [1], the “intact-protein LC-ESI-MS, covalent control (data not shown)” value is “Dithio-bis (2-nitrobenzoic acid) and GW9662, were also confirmed bind to PPARγ irreversibly (data not shown)”.

Regarding `CCCCCCCCCCC[C@@H](C[C@@H]1OC(=O)[C@H]1CCCCCC)OC(=O)[C@H](CC(C)C)NC=O` [Orlistat], the pIC50 – broadly, the IC50 on a negative log10 scale, so that one unit is a factor of ten – at PPARγ [2] was 5.55.
